Test results published in the supplement of paper PMC4862054.

Key:
Conditions in all cases: incubation time: 72 h
MDA-MB-231 [1] = experiment: normalised viability (% of control), CellTiter-Blue; higher = more viable cells (about 100 = DMSO control)
Outline: (§1)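 After 72 h on compound-loaded 384-well plates, breast cancer cell lines received 2.5 µl CellTiter-Blue reagent for 2 h at 37 °C. Fluorescence at 560/590 nm was scaled per plate so that vehicle was 100 and a positive kill control was 0. The value stands for normalised viability at a single listed concentration of the series.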

MDA-MB-436 [2] = experiment: as above
Outline: as §1

MFM-223 [3] = experiment: as above
Outline: as §1

BT-474 [4] = experiment: drug sensitivity score (DSS), CellTiter-Glo (DSS (AUC-based score)); higher = stronger drug effect (viability inhibition or cytotoxicity); extreme values may be limits of the assay
Outline: (§2)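 The drug sensitivity score reflects the area under a fitted dose-response curve. To obtain it, breast cancer cells in 20 µl suspension were seeded into 384-well plates containing compound at 5 concentrations, 10-fold apart over a compound-specific 10,000-fold range, and incubated 72 h. CellTox Green fluorescence (485/520 nm) was read first and CellTiter-Glo luminescence second, after 10 min at room temperature. Each plate was normalised to 0.1 % DMSO and a positive kill control.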

BT-549 = experiment: as above
Outline: as §2

CAL-120 = experiment: as above
Outline: as §2

CAL-148 [5] = experiment: as above
Outline: as §2

CAL-51 = experiment: as above
Outline: as §2

CAL-85-1 = experiment: as above
Outline: as §2

DU-4475 = experiment: as above
Outline: as §2

HCC1143 = experiment: as above
Outline: as §2

HCC1599 [6] = experiment: as above
Outline: as §2

HCC1937 = experiment: as above
Outline: as §2

HDQ-P1 = experiment: as above
Outline: as §2

Hs578T = experiment: as above
Outline: as §2

MCF-10A = experiment: as above
Outline: as §2

MDA-MB-231 [7] = experiment: as above
Outline: as §2

MDA-MB-436 [8] = experiment: as above
Outline: as §2

MDA-MB-453 = experiment: as above
Outline: as §2

MDA-MB-468 = experiment: as above
Outline: as §2

MFM-223 [9] = experiment: as above
Outline: as §2

SK-BR-3 = experiment: as above
Outline: as §2

BT-474 [10] = experiment: drug sensitivity score (DSS), CellTox Green (DSS (AUC-based score)); higher = stronger drug effect (viability inhibition or cytotoxicity); extreme values may be limits of the assay
Outline: as §2

CAL-148 [11] = experiment: as above
Outline: as §2

HCC1599 [12] = experiment: as above
Outline: as §2

C#Cc1cccc(Nc2ncnc3cc(OCCOC)c(OCCOC)cc23)c1 [Erlotinib]
normalised viability (MDA-MB-231 [1]; 10 nM): 95%
normalised viability (MDA-MB-231 [1]; 1000 nM): 120%
normalised viability (MDA-MB-231 [1]; 10000 nM): 95.5%
normalised viability (MDA-MB-436 [2]; 10 nM): 108%
normalised viability (MDA-MB-436 [2]; 1000 nM): 83.9%
normalised viability (MDA-MB-436 [2]; 10000 nM): 74%
normalised viability (MFM-223 [3]; 10 nM): 97.3%
normalised viability (MFM-223 [3]; 1000 nM): 91.5%
normalised viability (MFM-223 [3]; 10000 nM): 54.1%
drug sensitivity score (BT-474 [4]): 0
drug sensitivity score (BT-549): 0
drug sensitivity score (CAL-120): 0.577
drug sensitivity score (CAL-148 [5]): 1.84
drug sensitivity score (CAL-51): 2.18
drug sensitivity score (CAL-85-1): 7.99
drug sensitivity score (DU-4475): 0
drug sensitivity score (HCC1143): 0
drug sensitivity score (HCC1599 [6]): 0
drug sensitivity score (HCC1937): 0
drug sensitivity score (HDQ-P1): 9.11
drug sensitivity score (Hs578T): 0
drug sensitivity score (MCF-10A): 16.3
drug sensitivity score (MDA-MB-231 [7]): 0
drug sensitivity score (MDA-MB-436 [8]): 0.203
drug sensitivity score (MDA-MB-453): 0
drug sensitivity score (MDA-MB-468): 0
drug sensitivity score (MFM-223 [9]): 0
drug sensitivity score (SK-BR-3): 2.74
drug sensitivity score (BT-474 [10]): 0.507
drug sensitivity score (CAL-148 [11]): 0
drug sensitivity score (HCC1599 [12]): 0

Cc1ccc(-n2nc(C(C)(C)C)cc2NC(=O)Nc2ccc(OCCN3CCOCC3)c3ccccc23)cc1 [Doramapimod]
normalised viability (MDA-MB-231 [1]; 10 nM): 99.2%
normalised viability (MDA-MB-231 [1]; 1000 nM): 99%
normalised viability (MDA-MB-231 [1]; 10000 nM): 109%
normalised viability (MDA-MB-436 [2]; 10 nM): 84.4%
normalised viability (MDA-MB-436 [2]; 1000 nM): 33.9%
normalised viability (MDA-MB-436 [2]; 10000 nM): 71.5%
normalised viability (MFM-223 [3]; 10 nM): 103%
normalised viability (MFM-223 [3]; 1000 nM): 92.8%
normalised viability (MFM-223 [3]; 10000 nM): 81.5%
drug sensitivity score (BT-474 [4]): 1.64
drug sensitivity score (BT-549): 0
drug sensitivity score (CAL-120): 0
drug sensitivity score (CAL-148 [5]): 0
drug sensitivity score (CAL-51): 0
drug sensitivity score (CAL-85-1): 0
drug sensitivity score (DU-4475): 0
drug sensitivity score (HCC1143): 0
drug sensitivity score (HCC1599 [6]): 0
drug sensitivity score (HCC1937): 0
drug sensitivity score (HDQ-P1): 1.32
drug sensitivity score (Hs578T): 0
drug sensitivity score (MCF-10A): 0
drug sensitivity score (MDA-MB-231 [7]): 0
drug sensitivity score (MDA-MB-436 [8]): 0
drug sensitivity score (MDA-MB-453): 1.59
drug sensitivity score (MDA-MB-468): 2.44
drug sensitivity score (MFM-223 [9]): 2.15
drug sensitivity score (SK-BR-3): 0
drug sensitivity score (BT-474 [10]): 0
drug sensitivity score (CAL-148 [11]): 0
drug sensitivity score (HCC1599 [12]): 0

Cc1ccc(C(=O)N(CCCN)[C@@H](c2oc3cc(Cl)ccc3c(=O)c2Cc2ccccc2)C(C)C)cc1
normalised viability (MDA-MB-231 [1]; 1 nM): 37.1%
normalised viability (MDA-MB-231 [1]; 100 nM): 25.8%
normalised viability (MDA-MB-231 [1]; 1000 nM): 24.2%
normalised viability (MDA-MB-436 [2]; 1 nM): 97.8%
normalised viability (MDA-MB-436 [2]; 100 nM): 60.6%
normalised viability (MDA-MB-436 [2]; 1000 nM): 59.2%
normalised viability (MFM-223 [3]; 1 nM): 105%
normalised viability (MFM-223 [3]; 100 nM): 43.4%
normalised viability (MFM-223 [3]; 1000 nM): 40.6%
drug sensitivity score (BT-474 [4]): 0
drug sensitivity score (BT-549): 0
drug sensitivity score (CAL-120): 0
drug sensitivity score (CAL-148 [5]): 0
drug sensitivity score (CAL-51): 9.66
drug sensitivity score (CAL-85-1): 0
drug sensitivity score (DU-4475): 0
drug sensitivity score (HCC1143): 0
drug sensitivity score (HCC1599 [6]): 0
drug sensitivity score (HCC1937): 0
drug sensitivity score (HDQ-P1): 0
drug sensitivity score (Hs578T): 0
drug sensitivity score (MCF-10A): 0
drug sensitivity score (MDA-MB-231 [7]): 0
drug sensitivity score (MDA-MB-436 [8]): 0
drug sensitivity score (MDA-MB-453): 0
drug sensitivity score (MDA-MB-468): 0
drug sensitivity score (MFM-223 [9]): 0
drug sensitivity score (SK-BR-3): 0
drug sensitivity score (BT-474 [10]): 0
drug sensitivity score (CAL-148 [11]): 0
drug sensitivity score (HCC1599 [12]): 0

O=P1(NCCCl)OCCCN1CCCl (stereo unspecified) [Ifosfamide]
normalised viability (MDA-MB-231 [1]; 10 nM): 101%
normalised viability (MDA-MB-231 [1]; 1000 nM): 97.3%
normalised viability (MDA-MB-231 [1]; 10000 nM): 109%
normalised viability (MDA-MB-436 [2]; 10 nM): 96.6%
normalised viability (MDA-MB-436 [2]; 1000 nM): 109%
normalised viability (MDA-MB-436 [2]; 10000 nM): 102%
normalised viability (MFM-223 [3]; 10 nM): 87.1%
normalised viability (MFM-223 [3]; 1000 nM): 91.6%
normalised viability (MFM-223 [3]; 10000 nM): 97.3%
drug sensitivity score (BT-474 [4]): 0.0144
drug sensitivity score (BT-549): 0
drug sensitivity score (CAL-120): 0
drug sensitivity score (CAL-148 [5]): 0
drug sensitivity score (CAL-51): 0
drug sensitivity score (CAL-85-1): 0
drug sensitivity score (DU-4475): 0
drug sensitivity score (HCC1143): 0
drug sensitivity score (HCC1599 [6]): 0
drug sensitivity score (HCC1937): 0
drug sensitivity score (HDQ-P1): 0
drug sensitivity score (Hs578T): 0
drug sensitivity score (MCF-10A): 0
drug sensitivity score (MDA-MB-231 [7]): 0
drug sensitivity score (MDA-MB-436 [8]): 0
drug sensitivity score (MDA-MB-453): 0
drug sensitivity score (MDA-MB-468): 0
drug sensitivity score (MFM-223 [9]): 0
drug sensitivity score (SK-BR-3): 0
drug sensitivity score (BT-474 [10]): 0
drug sensitivity score (CAL-148 [11]): 0
drug sensitivity score (HCC1599 [12]): 0

CO[C@H]1/C=C\C=C(/C)C(=O)NC2=CC(=O)C(NCCN(C)C)=C(C[C@@H](C)C[C@H](OC)[C@H](O)[C@@H](C)/C=C(\C)[C@@H]1OC(N)=O)C2=O [Alvespimycin]
normalised viability (MDA-MB-231 [1]; 1 nM): 99%
normalised viability (MDA-MB-231 [1]; 100 nM): 35.2%
normalised viability (MDA-MB-231 [1]; 1000 nM): 28.3%
normalised viability (MDA-MB-436 [2]; 1 nM): 90.9%
normalised viability (MDA-MB-436 [2]; 100 nM): 28.9%
normalised viability (MDA-MB-436 [2]; 1000 nM): 20.4%
normalised viability (MFM-223 [3]; 1 nM): 97.4%
normalised viability (MFM-223 [3]; 100 nM): 27.3%
normalised viability (MFM-223 [3]; 1000 nM): 23.4%
drug sensitivity score (BT-474 [4]): 11.6
drug sensitivity score (BT-549): 16.1
drug sensitivity score (CAL-120): 8.6
drug sensitivity score (CAL-148 [5]): 13.3
drug sensitivity score (CAL-51): 13.4
drug sensitivity score (CAL-85-1): 13.9
drug sensitivity score (DU-4475): 17.6
drug sensitivity score (HCC1143): 12.1
drug sensitivity score (HCC1599 [6]): 4.92
drug sensitivity score (HCC1937): 12.6
drug sensitivity score (HDQ-P1): 14
drug sensitivity score (Hs578T): 10.6
drug sensitivity score (MCF-10A): 14.9
drug sensitivity score (MDA-MB-231 [7]): 13.3
drug sensitivity score (MDA-MB-436 [8]): 13.1
drug sensitivity score (MDA-MB-453): 15.3
drug sensitivity score (MDA-MB-468): 11.9
drug sensitivity score (MFM-223 [9]): 13.1
drug sensitivity score (SK-BR-3): 14.5
drug sensitivity score (BT-474 [10]): 4.58
drug sensitivity score (CAL-148 [11]): 9.12
drug sensitivity score (HCC1599 [12]): 0

COc1cc([C@@H]2c3cc4c(cc3[C@@H](O[C@@H]3O[C@@H]5CO[C@@H](C)O[C@H]5[C@H](O)[C@H]3O)[C@H]3COC(=O)[C@H]23)OCO4)cc(OC)c1O [Etoposide]
normalised viability (MDA-MB-231 [1]; 10 nM): 121%
normalised viability (MDA-MB-231 [1]; 1000 nM): 82.7%
normalised viability (MDA-MB-231 [1]; 10000 nM): 66.1%
normalised viability (MDA-MB-436 [2]; 10 nM): 99.8%
normalised viability (MDA-MB-436 [2]; 1000 nM): 84.1%
normalised viability (MDA-MB-436 [2]; 10000 nM): 55.2%
normalised viability (MFM-223 [3]; 10 nM): 99.2%
normalised viability (MFM-223 [3]; 1000 nM): 107%
normalised viability (MFM-223 [3]; 10000 nM): 81.6%
drug sensitivity score (BT-474 [4]): 3.57
drug sensitivity score (BT-549): 5.14
drug sensitivity score (CAL-120): 2.02
drug sensitivity score (CAL-148 [5]): 7.19
drug sensitivity score (CAL-51): 8.68
drug sensitivity score (CAL-85-1): 0.96
drug sensitivity score (DU-4475): 9.9
drug sensitivity score (HCC1143): 4.37
drug sensitivity score (HCC1599 [6]): 9.75
drug sensitivity score (HCC1937): 0
drug sensitivity score (HDQ-P1): 0.733
drug sensitivity score (Hs578T): 2.84
drug sensitivity score (MCF-10A): 0
drug sensitivity score (MDA-MB-231 [7]): 0.846
drug sensitivity score (MDA-MB-436 [8]): 7.41
drug sensitivity score (MDA-MB-453): 0
drug sensitivity score (MDA-MB-468): 5.45
drug sensitivity score (MFM-223 [9]): 0
drug sensitivity score (SK-BR-3): 9.09
drug sensitivity score (BT-474 [10]): 0
drug sensitivity score (CAL-148 [11]): 5.65
drug sensitivity score (HCC1599 [12]): 0
